The values that follow come from ChEMBL document CHEMBL5500322, “The significance of persisters in tuberculosis drug discovery: Exploring the potential of targeting the glyoxylate shunt pathway” (Eur J Med Chem, 2024).

Each structure is given as a SMILES string. pIC50, pKi: −log10 of the molar value. Values after ≈ are worked out from the molar mass of the structure shown.

A short description of assay [1]: Inhibition of N-terminal His-tagged isocitrate lyase (unknown origin) expressed in Escherichia coli BL21 (DE3).
Assay [2] concerns Mycobacterium tuberculosis. The experiment in a line: Antimycobacterial activity against Mycobacterium tuberculosis H37Rv assessed as inhibition of bacterial growth incubated for 24 hrs by alamar blue assay. It is filed as functional. A general note: Alamar Blue is a resazurin reagent that responds to reducing activity.
Assay [3] can be described thus: Binding affinity to indigofera isocitrate lyase assessed as inhibition of constant. On the set-up: species or system Vogesella indigofera.
Assay [4] is described as follows: Binding affinity to Mycobacterium tuberculosis Malate synthase assessed as inhibition constant.
Assay [5] can be described thus: Inhibition of N-terminal His-tagged Mycobacterium tuberculosis malate synthase expressed in Escherichia coli BL21 (DE3).
The test system of assay [6] is Mycobacterium tuberculosis. The experiment in a line: Antibacterial activity against Mycobacterium tuberculosis H37Rv (ATCC 27294) assessed as bacterial growth inhibition incubated for 7 days by microdilution alamarBlue assay. Format: functional. The following applies: 168 h, time 7 day. On the technique in general: Dilution methods test growth across graded concentrations, often in twofold steps.

Assay [7] has as its system Mycobacterium tuberculosis. The assay is described as follows: Antimycobacterial activity against Mycobacterium tuberculosis assessed as reduction in bacterial growth. It is filed as functional.
Assay [8] concerns Mycobacterium tuberculosis. The experiment in a line: Inhibition of Mycobacterium tuberculosis isocitrate lyase at 0.05 microg/ml relative to control. As to conditions: dose 0.05 µg/ml.
For assay [9], the system named is Mycobacterium tuberculosis. The assay is described as follows: Antimycobacterial activity against Mycobacterium tuberculosis H37Rv assessed as reduction in bacterial growth measured after 7 days by broth dilution method. As to conditions: 168 h, time 7 day. Format: functional.
Assay [10] deals with Mycobacterium tuberculosis. The experiment in a line: Binding affinity to Mycobacterium tuberculosis isocitrate lyase assessed as inactivation constant.
Another assay relates to Escherichia coli. The assay is described as follows: Antibacterial activity against Escherichia coli assessed as reduction in bacterial growth. It is filed as functional, organism-based.
A short description of assay [11]: Inhibition of Mycobacterium tuberculosis isocitrate lyase.
Assay [12] relates to Mycobacterium tuberculosis. The experiment in a line: Inhibition of Mycobacterium tuberculosis malate synthase at 1 uM relative to control.

In assay [1], `O=c1ccc2ccc(O)c(O)c2o1` [DAPHNETIN] gave an IC50 of 4.34 µg/mL. Further, in [2], the MIC amounted to 128 µg/mL (≈ 719 µM). Take `C=C(CC(=O)O)C(=O)O` [ITACONATE]: the pKi in assay [3] is 3.92. For the molecule `C=C(OP(=O)(O)O)C(=O)O` [PHOSPHOENOLPYRUVATE], in assay [4], the pKi is 3.70. `O=C(O)/C(O)=C/C(=O)c1ccccc1` showed a pIC50 in [5] of 5.70. As for `O=C(O)CC[N+](=O)[O-]`, the pKi in assay [3] was 3.92.

Turning to `COC(=O)/C=C/C(=O)c1ccc(OC)cc1`, the pIC50 in assay [1] (read-out: IC50) is 4.51. For the same molecule, the MIC in assay [6] was 0.25 µg/mL (≈ 1.14 µM). For the molecule `O=C(O)C(=O)O` [OXALIC ACID], the pKi in assay [4] was 3.40. For `Nc1ccc(S(=O)(=O)Nc2nccs2)cc1` [SULFATHIAZOLE], the MIC in [7] is at least 125 µM. Regarding `Nc1ccc(C(=O)O)c(O)c1` [AMINOSALICYLIC ACID], the MIC in [7] was at least 125 µM. On to `COc1ccc2cc(CCC(=O)CC(Nc3ccc(C(=O)O)cc3)c3ccc(Cl)cc3)ccc2c1` (centres undefined), for which the inhibition in [8] turned out to be 57.4%.

Regarding `COc1ccc2c(c[n+](C)c3c4cc5c(cc4ccc23)OCO5)c1OC` [CHELERYTHRINE], in assay [9], the minimum inhibitory concentration (MIC) amounted to 8 µg/mL. In the case of `O=CC(=O)O` [GLYOXYLATE], the pKi in assay [4] was 3.05. As for `O=C(O)[C@H]1O[C@H]1C(=O)O`, the Kinact in assay [10] was 0.01 10^3/M.s.

As for `O=C(O)C(=O)CBr` [BROMOPYRUVATE], the negative-log IC50 (pIC50) in the assay on Escherichia coli was 5.52. Turning to `CCCCCCCCCCCCC(=O)NNC(=O)c1c(O)c2ccccc2n(CC)c1=O`, in assay [11], the IC50 was 134.4 µg/mL (≈ 303 µM).

As for `O=C(O)[C@@H](C[N+](=O)[O-])[C@@H](O)C(=O)O`, the Kinact in [10] was 1.3 10^3/M.s. As to `O=C(O)CC(O)C(=O)O` (centres undefined), the inhibition in assay [12] amounted to 50%.

By IC50 is commonly meant the concentration that inhibits the measured activity by half. By MIC is commonly meant the lowest concentration found to suppress growth. As a reminder, the pKi is the negative decadic logarithm of the Ki, by convention in mol/L. The pIC50 is the IC50 on a negative log10 scale, so that one unit is a factor of ten. In general, inhibition refers to the drop in the measured response relative to a control, in per cent. Low readings indicate a weak effect, high ones a strong effect.
